Source: US6310093A (priority 1998, dated 2001)

System: mixed glial-neuronal cultures
Experiment: Glutamate production in intact mixed glial-neuronal cultures with added glutamine
Format: cell-based, mouse (Swiss Webster)
Description: Added glutamate (15 μM) was rapidly cleared from the medium of the mixed glial-neuronal cultures (FIG. 1). The uptake again fit to a first order process and occurred with a rate constant of 0.072 min^-1. […] When the intact mixed cultures were maintained in the absence or presence of added 2 mM glutamine, they also maintained steady state concentrations of glutamate below 1 μM (0.37±0.06 μM and 0.83±0.47 μM respectively). Thus, from the steady state equation, the rates of glutamate production were estimated to be 0.027 μM/min (11 pmol/min) in the absence of added glutamine and 0.060 μM/min (24 pmol/min) in the presence of 2 mM glutamine.
Measurements of glutamate and glutamine concentrations, as well as of the release of the cytoplasmic marker enzyme, lactate dehydrogenase (LDH), were made with the medium of mixed neuronal-astrocyte cultures exposed to hypoxic and control conditions, with and without the addition of 2 mM glutamine. For comparative purposes, the measurements were made in mixed cultures in which complete neuronal death was caused by a 5h exposure to 500 μM NMDA. The first glutamate measurement was made at the end of hypoxia (5h with mixed cultures, 7h with astrocytes), and the second at 19 h after the subsequent return of oxygen. If added, glutamine was present during and after hypoxia. LDH released by the experimental treatment was measured at 24 h, and is expressed as a percentage of the total cellular content (neurons in mixed cultures, and glia in glial cultures). To verify the neuronal origin of LDH and glutamate, similar experiments were performed on cultures that only contained glia.
Pre-column derivatization with o-phthalaldehyde (OPA, Sigma) and separation by reversed phase HPLC was used. A Gilson HPLC was fitted with a Hewlett-Packard model 1046A fluorimetric detector (excitation 340 nm, emission 420 nm). Medium was collected from cell culture at various times, and frozen at -80° C., prior to dilution of 5 or 10 μl into auto-sampler vials containing 40 or 45 μl dimethylformamide:water 1:3 (derivatives with 2-mercaptoethanol) or 1:9 (derivatives with N-acetyl-L-cysteine). For analysis of the derivatives formed with 2-mercaptoethanol, samples were reacted according to published methods (Newcomb, R. (1989) LC GC 7, 570-578; Lindroth, P., and Mopper. K., (1979) Anal. Chem. 51, 1667-1674.), and a gradient of 0-40% methanol in 1.25 mM sodium phosphate pH 6.2 over 20 min was used to elute the derivatives from a 4.5×250 mm Beckman Ultrasphere octadecylsilica column (dp 5 μm) at 1 ml/min. For analysis of the derivatives formed with N-acetyl-L-cysteine (Bruckner), samples were reacted with 25 μl of 1 mg/ml OPA, and 50 μl of 1 mg/ml N-acetyl-L-cysteine (Fluka) in 0.5 M potassium borate pH 10.0. […]
In cultures where glutamate concentrations are (within error) constant, d[Glu]/dt is close to zero, and cellular production of medium glutamate is balanced by its removal, such that glutamate production can be calculated from the steady state equation: […]
Calculations were performed using the slopes of the regression lines which describe the rate constants for glutamate removal and the mean values for culture medium glutamate concentrations. […] For comparative purposes, glutamate production rates can be expressed as pmol of glutamate produced per min in each culture. […]

[1] = Table 2, glial-neuronal, 2 mM Gln

NC(=O)CC[C@H](N)C(=O)O [Gln, glutamine]
Glu (2 mM Gln, 5 h, mixed cultures, no hypoxia): 0.83 ± 0.47 µM
cytotoxicity at 2000 µM (Mus musculus, 24 h, read-out: % cell death (LDH)): 17.6%
Glutamate concentration [1]: 0.83 ± 0.47
Glutamate production (S) [1]: 0.06
glutamate production per culture (mixed, 2 mM glutamine): 24 pmol/min
